In patent publication US10538555B2, “Macrocyclic inhibitors of the PD-1/PD-L1 and CD80(B7-1)/PD-L1 protein/protein interactions” (BRISTOL-MYERS SQUIBB COMPANY, priority 2014, dated 2020):
Where a SMILES comes first, the peptide text is derived from it. Bridges are numbered along the chain shown (N, C = ends). [ ]: non-standard residue; d: D form. ξ: configuration not given here. Bta = N[C@@H](Cc1csc2ccccc12)C(=O)O; Hyp = O=C(O)[C@@H]1C[C@@H](O)CN1; NMeF = CN[C@@H](Cc1ccccc1)C(=O)O; NMeNle = CCCC[C@H](NC)C(=O)O; hSer = N[C@@H](CCO)C(=O)O; NMeA = CN[C@@H](C)C(=O)O; ξC = NC(CS)C(=O)O; Sar = CNCC(=O)O

target: T1, Human PD-L1/PD-1 (Homo sapiens, UniProt Q9NZQ7); assay: HTRF Human PD-L1/PD-1 binding assay (PD-1-Ig/PD-L1-His); settings: PD-L1-His 10 nM, PD-1-Ig 20 nM; class symbol; read-out: HTRF Human PD-L1/PD-1 Binding Assay IC50 Range
T1 construct: TVMV protease cleavage site (C); made in house; host or cells: HEK293T cells
Summary of the method: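 Soluble HEK293T-expressed proteins: hPD-L1-His 10 nM, hPD-1-Ig 20 nM final. Cpd + PD-L1 15 min, + PD-1 15 min, + Eu anti-Ig 1 nM/APC anti-His 20 nM 30 min. Buffer dPBS, 0.1% BSA, 0.05% Tween-20. TR-FRET 665/620.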

T1 sequence (Q9NZQ7 with tags, fused parts or gaps): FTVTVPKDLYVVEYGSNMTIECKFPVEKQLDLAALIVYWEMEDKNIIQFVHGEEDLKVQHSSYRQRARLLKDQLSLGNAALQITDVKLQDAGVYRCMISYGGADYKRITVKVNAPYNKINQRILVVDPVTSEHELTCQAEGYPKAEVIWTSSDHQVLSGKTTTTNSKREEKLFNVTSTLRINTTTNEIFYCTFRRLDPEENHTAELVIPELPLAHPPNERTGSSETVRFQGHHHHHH

Row | Structure (SMILES) | IC50
1 | CCCC[C@H]1C(=O)N(C)[C@@H](CCCC)C(=O)N[C@@H](CCCNC(=N)N)C(=O)NC(C(=O)NCC(N)=O)CSCC(=O)N[C@@H](Cc2ccc(O)cc2)C(=O)N(C)[C@@H](C)C(=O)N[C@@H](CC(N)=O)C(=O)N2CCC[C@H]2C(=O)N[C@@H](CCO)C(=O)N[C@@H](CO)C(=O)N2C[C@H](O)C[C@H]2C(=O)N[C@@H](Cc2c[nH]c3ccccc23)C(=O)N[C@@H](CO)C(=O)N[C@@H](Cc2csc3ccccc23)C(=O)N1C (stereo partly drawn) [Example 10023] ({CH2CO}-Y[NMeA]NP[hSer]S[Hyp]WS[Bta][NMeNle][NMeNle]R[ξC]G-NH2; thioether N-14) | 10 to 99.9 nM
2 | CCCC[C@H]1C(=O)N(C)[C@@H](CCCC)C(=O)N[C@@H](CCCNC(=N)N)C(=O)NC(C(=O)NCC(N)=O)CSCC(=O)N[C@@H](Cc2ccc(O)cc2)C(=O)N(C)[C@@H](C)C(=O)N[C@@H](CC(N)=O)C(=O)N2CCC[C@H]2C(=O)N[C@@H](CCO)C(=O)N[C@@H](CO)C(=O)N2CCC[C@H]2C(=O)N[C@@H](Cc2c[nH]c3ccccc23)C(=O)N[C@@H](CO)C(=O)N[C@@H](Cc2c[nH]c3ccccc23)C(=O)N1C (stereo partly drawn) [Example 10024] ({CH2CO}-Y[NMeA]NP[hSer]SPWSW[NMeNle][NMeNle]R[ξC]G-NH2; thioether N-14) | 10 to 99.9 nM
3 | CCCC[C@H]1C(=O)N(C)[C@@H](CCCC)C(=O)N[C@@H](CCCNC(=N)N)C(=O)NC(C(=O)NCC(N)=O)CSCC(=O)N[C@@H](Cc2ccc(O)cc2)C(=O)N(C)[C@@H](C)C(=O)N[C@@H](CC(N)=O)C(=O)N2CCC[C@H]2C(=O)N[C@@H](CO)C(=O)N[C@@H](CCO)C(=O)N2CCC[C@H]2C(=O)N[C@@H](Cc2c[nH]c3ccccc23)C(=O)N[C@@H](CO)C(=O)N[C@@H](Cc2csc3ccccc23)C(=O)N1C (stereo partly drawn) [Example 10025] ({CH2CO}-Y[NMeA]NPS[hSer]PWS[Bta][NMeNle][NMeNle]R[ξC]G-NH2; thioether N-14) | 1 to 9.9 nM
4 | CCCC[C@H]1C(=O)N(C)[C@@H](CCCC)C(=O)N[C@@H](CCCNC(=N)N)C(=O)NC(C(=O)NCC(N)=O)CSCC(=O)N[C@@H](Cc2ccc(O)cc2)C(=O)N(C)[C@@H](C)C(=O)N[C@@H](CC(N)=O)C(=O)N2CCC[C@H]2C(=O)N[C@@H](CCO)C(=O)N[C@@H](CO)C(=O)N2CCC[C@H]2C(=O)N[C@@H](Cc2c[nH]c3ccccc23)C(=O)N[C@@H](CO)C(=O)N[C@@H](Cc2c[nH]c3ccccc23)C(=O)N1C (stereo partly drawn) [Example 10034] ({CH2CO}-Y[NMeA]NP[hSer]SPWSW[NMeNle][NMeNle]R[ξC]G-NH2; thioether N-14) | 1 to 9.9 nM
5 | CCCC[C@H]1C(=O)N(C)[C@@H](CCCC)C(=O)N[C@@H](CCCNC(=N)N)C(=O)NC(C(=O)NCC(N)=O)CSCC(=O)N[C@@H](Cc2ccc(O)cc2)C(=O)N(C)[C@@H](C)C(=O)N[C@@H](CC(N)=O)C(=O)N2CCC[C@H]2C(=O)N[C@@H](CO)C(=O)N[C@@H](CCO)C(=O)N2C[C@H](O)C[C@H]2C(=O)N[C@@H](Cc2c[nH]c3ccccc23)C(=O)N[C@@H](CO)C(=O)N[C@@H](Cc2csc3ccccc23)C(=O)N1C (stereo partly drawn) [Example 10035] ({CH2CO}-Y[NMeA]NPS[hSer][Hyp]WS[Bta][NMeNle][NMeNle]R[ξC]G-NH2; thioether N-14) | 1 to 9.9 nM

Second part, the compound after the results:

Row | IC50 | Structure (SMILES)
6 | 1 to 9.9 nM | CCCC[C@H]1C(=O)N(C)[C@@H](CCCC)C(=O)N[C@@H](CCCNC(=N)N)C(=O)NC(C(=O)NCC(N)=O)CSCC(=O)N[C@@H](Cc2ccc(O)cc2)C(=O)N(C)[C@@H](C)C(=O)N[C@@H](CC(N)=O)C(=O)N2CCC[C@H]2C(=O)N[C@@H](CO)C(=O)N[C@@H](CCO)C(=O)N2CCC[C@H]2C(=O)N[C@@H](Cc2c[nH]c3ccccc23)C(=O)N[C@@H](CO)C(=O)N[C@@H](Cc2c[nH]c3ccccc23)C(=O)N1C (stereo partly drawn) [Example 10036] ({CH2CO}-Y[NMeA]NPS[hSer]PWSW[NMeNle][NMeNle]R[ξC]G-NH2; thioether N-14)
7 | 10 to 99.9 nM | CCCC[C@H]1C(=O)N(C)[C@@H](CCCC)C(=O)N[C@@H](CCCNC(=N)N)C(=O)NC(C(=O)NCC(N)=O)CSCC(=O)N[C@@H](Cc2ccc(O)cc2)C(=O)N(C)[C@@H](C)C(=O)N[C@@H](CC(N)=O)C(=O)N2CCC[C@H]2C(=O)N[C@@H](CC(N)=O)C(=O)N[C@@H](CC(N)=O)C(=O)N2CCC[C@H]2C(=O)N[C@@H](Cc2c[nH]c3ccccc23)C(=O)N[C@@H](CO)C(=O)N[C@@H](Cc2csc3ccccc23)C(=O)N1C (stereo partly drawn) [Example 10042] ({CH2CO}-Y[NMeA]NPNNPWS[Bta][NMeNle][NMeNle]R[ξC]G-NH2; thioether N-14)
8 | 1 to 9.9 nM | CCCC[C@H]1C(=O)N(C)[C@@H](CCCC)C(=O)N[C@@H](CCCNC(=N)N)C(=O)NC(C(=O)NCC(N)=O)CSCC(=O)N[C@@H](Cc2ccc(O)cc2)C(=O)N(C)[C@@H](C)C(=O)N[C@@H](CC(N)=O)C(=O)N2CCC[C@H]2C(=O)N[C@@H](CCO)C(=O)N[C@@H](CCO)C(=O)N2C[C@H](O)C[C@H]2C(=O)N[C@@H](Cc2c[nH]c3ccccc23)C(=O)N[C@@H](CO)C(=O)N[C@@H](Cc2c[nH]c3ccccc23)C(=O)N1C (stereo partly drawn) [Example 10043] ({CH2CO}-Y[NMeA]NP[hSer][hSer][Hyp]WSW[NMeNle][NMeNle]R[ξC]G-NH2; thioether N-14)
9 | 10 to 99.9 nM | CCCC[C@H]1C(=O)N2CCC[C@@H]2C(=O)N[C@@H](CC(=O)O)C(=O)N[C@@H](C)C(=O)N(C)[C@@H](Cc2ccccc2)C(=O)N[C@@H](Cc2ccc(O)cc2)C(=O)N(C)CC(=O)N[C@@H](Cc2c[nH]c3ccccc23)C(=O)N[C@@H](Cc2ccc(O)cc2)C(=O)N[C@@H](CC(C)C)C(=O)N[C@H](C(=O)NCC(N)=O)CSCC(=O)N[C@@H](Cc2ccccc2)C(=O)N(C)[C@@H](Cc2ccccc2)C(=O)N1C [Example 10044] ({CH2CO}-F[NMeF][NMeNle][dP]DA[NMeF]Y[Sar]WYLCG-NH2; thioether N-13)
10 | 10 to 99.9 nM | CCCC[C@H]1C(=O)N(C)[C@@H](CCCC)C(=O)N[C@@H](CCCNC(=N)N)C(=O)NC(C(=O)NCC(N)=O)CSCC(=O)N[C@@H](Cc2ccc(O)cc2)C(=O)N(C)[C@@H](C)C(=O)N[C@@H](CC(N)=O)C(=O)N2CCC[C@H]2C(=O)N[C@@H](Cc2cnc[nH]2)C(=O)N[C@@H](CC(C)C)C(=O)N2CCC[C@H]2C(=O)N[C@@H](Cc2c[nH]c3ccccc23)C(=O)N[C@@H](CO)C(=O)N[C@@H](Cc2csc3ccccc23)C(=O)N1C (stereo partly drawn) [Example 10045] ({CH2CO}-Y[NMeA]NPHLPWS[Bta][NMeNle][NMeNle]R[ξC]G-NH2; thioether N-14)
11 | 1 to 9.9 nM | CCCC[C@H]1C(=O)N(C)[C@@H](CCCC)C(=O)N[C@@H](CCCNC(=N)N)C(=O)NC(C(=O)NCC(N)=O)CSCC(=O)N[C@@H](Cc2ccc(O)cc2)C(=O)N(C)[C@@H](C)C(=O)N[C@@H](CC(N)=O)C(=O)N2CCC[C@H]2C(=O)N[C@@H](CO)C(=O)N[C@@H](CCO)C(=O)N2CCC[C@H]2C(=O)N[C@@H](Cc2c[nH]c3ccccc23)C(=O)N[C@@H](CO)C(=O)N[C@@H](Cc2csc3ccccc23)C(=O)N1C (stereo partly drawn) [Example 10049] ({CH2CO}-Y[NMeA]NPS[hSer]PWS[Bta][NMeNle][NMeNle]R[ξC]G-NH2; thioether N-14)
12 | 1 to 9.9 nM | CCCC[C@H]1C(=O)N(C)[C@@H](CCCC)C(=O)N[C@@H](CCCNC(=N)N)C(=O)NC(C(=O)NCC(N)=O)CSCC(=O)N[C@@H](Cc2ccc(O)cc2)C(=O)N(C)[C@@H](C)C(=O)N[C@@H](CC(N)=O)C(=O)N2CCC[C@H]2C(=O)N[C@@H](CO)C(=O)N[C@@H](CCO)C(=O)N2C[C@H](O)C[C@H]2C(=O)N[C@@H](Cc2c[nH]c3ccccc23)C(=O)N[C@@H](CCO)C(=O)N[C@@H](Cc2csc3ccccc23)C(=O)N1C (stereo partly drawn) [Example 10050] ({CH2CO}-Y[NMeA]NPS[hSer][Hyp]W[hSer][Bta][NMeNle][NMeNle]R[ξC]G-NH2; thioether N-14)
